Assay results taken from ChEMBL document CHEMBL3046740, “Lonazolac analogues: molecular modeling, synthesis, and in vivo anti-inflammatory activity” (2009).

What was measured:
Type in all cases: functional
Rattus norvegicus [1] = experiment: Anti-inflammatory activity in Rattus norvegicus albino (rat) assessed as inhibition of carrageenan-induced paw edema at 50 mg/kg, po administered 30 min before carrageenan challenge measured after 4 hr
Rattus norvegicus [2] = experiment: Anti-inflammatory activity in Rattus norvegicus albino (rat) assessed as inhibition of carrageenan-induced paw edema at 50 mg/kg, po administered 30 min before carrageenan challenge measured after 3 hr
Mus musculus [3] = experiment: Analgesic activity in Mus musculus (mouse) assessed as paw withdrawal latency time at 50 mg/kg, ip after 30 min; conditions: route intraperitoneal
Rattus norvegicus [4] = experiment: Anti-inflammatory activity in Rattus norvegicus albino (rat) assessed as inhibition of carrageenan-induced paw edema at 50 mg/kg, po administered 30 min before carrageenan challenge measured after 24 hr
Rattus norvegicus [5] = experiment: Anti-inflammatory activity in Rattus norvegicus albino (rat) assessed as inhibition of carrageenan-induced paw edema at 50 mg/kg, po administered 30 min before carrageenan challenge measured after 1 hr
Rattus norvegicus [6] = experiment: Anti-inflammatory activity in Rattus norvegicus albino (rat) assessed as inhibition of carrageenan-induced paw edema at 50 mg/kg, po administered 30 min before carrageenan challenge measured after 2 hr
Rattus norvegicus [7] = experiment: Anti-inflammatory activity in Rattus norvegicus albino (rat) assessed as inhibition of carrageenan-induced paw edema at 10 mg/kg, po administered 30 min before carrageenan challenge measured after 4 hr
Rattus norvegicus [8] = experiment: Anti-inflammatory activity in Rattus norvegicus albino (rat) assessed as inhibition of carrageenan-induced paw edema at 10 mg/kg, po administered 30 min before carrageenan challenge measured after 2 hr
Rattus norvegicus [9] = experiment: Anti-inflammatory activity in Rattus norvegicus albino (rat) assessed as inhibition of carrageenan-induced paw edema at 10 mg/kg, po administered 30 min before carrageenan challenge measured after 3 hr
Rattus norvegicus [10] = experiment: Anti-inflammatory activity in Rattus norvegicus albino (rat) assessed as inhibition of carrageenan-induced paw edema at 10 mg/kg, po administered 30 min before carrageenan challenge measured after 24 hr
Rattus norvegicus [11] = experiment: Anti-inflammatory activity in Rattus norvegicus albino (rat) assessed as inhibition of carrageenan-induced paw edema at 10 mg/kg, po administered 30 min before carrageenan challenge measured after 1 hr
Mus musculus [12] = experiment: Analgesic activity in Mus musculus (mouse) assessed as paw withdrawal latency time at 10 mg/kg, ip after 30 min; conditions: route intraperitoneal

## NC(=O)c1ccccc1NC(=O)c1cn(-c2ccccc2)nc1-c1ccc(Cl)cc1
Rattus norvegicus [1]
  inhibition in vivo at 50 mg/kg: 9.26%
Rattus norvegicus [2]
  inhibition in vivo at 50 mg/kg: 3.45%
Mus musculus [3]
  Time: 4.89 s
Rattus norvegicus [4]
  inhibition in vivo at 50 mg/kg: 15.2%
Rattus norvegicus [5]
  inhibition in vivo at 50 mg/kg: 1.96%
Rattus norvegicus [6]
  inhibition in vivo at 50 mg/kg: 9.38%

## NC(=O)c1ccccc1NC(=O)c1cn(-c2ccccc2)nc1-c1ccccc1
Rattus norvegicus [1]
  inhibition in vivo at 50 mg/kg: 9.88%
Rattus norvegicus [2]
  inhibition in vivo at 50 mg/kg: 14.4%
Mus musculus [3]
  Time: 6.29 s
Rattus norvegicus [4]
  inhibition in vivo at 50 mg/kg: -3.79%
Rattus norvegicus [5]
  inhibition in vivo at 50 mg/kg: 17.6%
Rattus norvegicus [6]
  inhibition in vivo at 50 mg/kg: 13.5%

## Cc1ccc(-c2nn(-c3ccccc3)cc2/C=C/C(=O)CCC(=O)O)cc1
Rattus norvegicus [1]
  inhibition in vivo at 50 mg/kg: 13%
Rattus norvegicus [2]
  inhibition in vivo at 50 mg/kg: 11.5%
Mus musculus [3]
  Time: 6.47 s
Rattus norvegicus [4]
  inhibition in vivo at 50 mg/kg: 3.79%
Rattus norvegicus [5]
  inhibition in vivo at 50 mg/kg: 4.41%
Rattus norvegicus [6]
  inhibition in vivo at 50 mg/kg: 6.25%

## O=C(O)CCC(=O)/C=C/c1cn(-c2ccccc2)nc1-c1ccc(Cl)cc1
Rattus norvegicus [1]
  inhibition in vivo at 50 mg/kg: 8.64%
Rattus norvegicus [2]
  inhibition in vivo at 50 mg/kg: 6.32%
Mus musculus [3]
  Time: 4.09 s
Rattus norvegicus [4]
  inhibition in vivo at 50 mg/kg: 2.27%
Rattus norvegicus [5]
  inhibition in vivo at 50 mg/kg: 3.43%
Rattus norvegicus [6]
  inhibition in vivo at 50 mg/kg: 10.9%

## CC(=O)Nc1ccc(OC(=O)c2cn(-c3ccccc3)nc2-c2ccc(C)cc2)cc1
Rattus norvegicus [1]
  inhibition in vivo at 50 mg/kg: 3.7%
Rattus norvegicus [2]
  inhibition in vivo at 50 mg/kg: 6.32%
Mus musculus [3]
  Time: 8.32 s
Rattus norvegicus [4]
  inhibition in vivo at 50 mg/kg: 9.09%
Rattus norvegicus [5]
  inhibition in vivo at 50 mg/kg: 2.94%
Rattus norvegicus [6]
  inhibition in vivo at 50 mg/kg: 4.17%

## O=C(O)CCC(=O)/C=C/c1cn(-c2ccccc2)nc1-c1ccccc1
Rattus norvegicus [1]
  inhibition in vivo at 50 mg/kg: 23.5%
Rattus norvegicus [2]
  inhibition in vivo at 50 mg/kg: 15.5%
Mus musculus [3]
  Time: 18.51 s
Rattus norvegicus [4]
  inhibition in vivo at 50 mg/kg: 8.33%
Rattus norvegicus [5]
  inhibition in vivo at 50 mg/kg: 27.9%
Rattus norvegicus [6]
  inhibition in vivo at 50 mg/kg: 13.5%

## COc1ccc2c(c1)c(CC(=O)O)c(C)n2C(=O)c1ccc(Cl)cc1 [INDOMETHACIN]
Rattus norvegicus [7]
  inhibition in vivo at 10 mg/kg: 24.7%
Rattus norvegicus [8]
  inhibition in vivo at 10 mg/kg: 19.3%
Rattus norvegicus [9]
  inhibition in vivo at 10 mg/kg: 21.8%
Rattus norvegicus [10]
  inhibition in vivo at 10 mg/kg: 12.9%
Rattus norvegicus [11]
  inhibition in vivo at 10 mg/kg: 30.9%
Mus musculus [12]
  Time: 10.5 s

## CC(=O)Nc1ccc(OC(=O)c2cn(-c3ccccc3)nc2-c2ccc(Cl)cc2)cc1
Rattus norvegicus [1]
  inhibition in vivo at 50 mg/kg: 16.1%
Rattus norvegicus [2]
  inhibition in vivo at 50 mg/kg: 16.7%
Mus musculus [3]
  Time: 18.83 s
Rattus norvegicus [4]
  inhibition in vivo at 50 mg/kg: 3.79%
Rattus norvegicus [5]
  inhibition in vivo at 50 mg/kg: 17.8%
Rattus norvegicus [6]
  inhibition in vivo at 50 mg/kg: 15.6%

## NC(=O)c1ccccc1OC(=O)c1cn(-c2ccccc2)nc1-c1ccc(Br)cc1
Rattus norvegicus [1]
  inhibition in vivo at 50 mg/kg: 6.14%
Rattus norvegicus [2]
  inhibition in vivo at 50 mg/kg: 8.6%
Mus musculus [3]
  Time: 7.4 s
Rattus norvegicus [4]
  inhibition in vivo at 50 mg/kg: 3.09%
Rattus norvegicus [5]
  inhibition in vivo at 50 mg/kg: 26%
Rattus norvegicus [6]
  inhibition in vivo at 50 mg/kg: 10.4%
